# Assay results as given in patent US20240122938A1, “METHODS AND COMPOSITIONS FOR TREATING UVEAL MELANOMA” (INSERM (INSTITUT NATIONAL DE LA SANTÉ ET DE LA RECHERCHE …, priority 2019, published 2024).
# Tests used:
# [1] = test system: ER stress molecules in Mel270 cells; experiment: Western blot of ER stress molecules; assay type: cell-based, human
# Procedure: Western blot of ER stress molecules in Mel270 cells treated with ABT-263 5 μM in the absence or presence of QVD-OPh 20 μM. Representative western blot are shown.
# (§1) Western blotting was performed as previously described 25,26. Briefly, cell lysates (30 μg) were separated using SDS-PAGE, transferred onto a PVDF membrane and subsequently exposed to the appropriate antibodies, anti-BCL2 (ms-123-PO) was from neomarker, anti-caspase 3 (#610323) was from BD, anti-BAX (#8429) was from sigma, anti-PARP (#9542), anti-BCL-XL (#2762), anti-caspase 9 (#9502) and anti-PUMA (#4976) were from Cell Signaling Technology Inc, anti-MCL1 (#sc-819), anti-NOXA (#56169), and anti-HSP90 (#sc-13119) were from Santa Cruz biotechnology. The proteins were visualized using the ECL system (Amersham).
# 92.1 cells = experiment: Cell death / apoptosis; assay type: cell-based, human; conditions: 92.1 cells; similar level as Mel270
# Procedure: (§2) Cells were seeded at a density of 100 000 cells/well, in 6-well plate and treated with ABT-263 for indicated time. Cells were harvested using accutase enzyme, washed twice with ice-cold phosphate-buffered saline, resuspended in a buffer (Hepes 250 mM, NaCl 150 mM, KCl 5 mM, MgCl2 2 mM, CaCl2) 2 mM) with DAPI (1 μg/ml) and Annexin V-Alexa Fluor 647 conjugate (1/100) and incubated for 15 minutes at room temperature (25° C.) in the dark. Samples were immediately analyzed by a flow cytometer (MACS QUANT) using a laser at 405 nm excitation with a bandpass filter at 425 nm and 475 nm for DAPI detection and a laser at 635 nm excitation with a bandpass filter at 650 nm and 665 nm for Alexa Fluor 647 dye. Annexin and DAPI mono- or double positive cells were counted as dead cells.
# [2] = test system: PARP, caspase 9 and caspase 3 in primary and metastatic uveal melanoma cells; experiment: Western blot of PARP and caspases; assay type: cell-based, human
# [3] = Body weight and blood biochemical analysis of xenografted mice; assay type: in vivo
# Procedure: FIG. 3. ABT-263 reduces tumor growth in vivo. (A) Primary 92.1 uveal melanoma cells were subcutaneously engrafted into athymic nude mice. Once the tumours reached 100 mm3, mice were treated daily with ABT-263. The arrow indicates the start of the treatment. The growth tumor curves were determined by measuring the tumor volume using the equation V=(L Å˜W2)/2. […] (B) Sub-cutaneous tumor weight from control (Ct) and ABT-263-treated mice is shown. (C) Blood biochemical analysis of mice xenografted with OMM1 cells. Serum activity of alanine transaminase (ALT) and aspartate transaminase (AST) was measured in control and ABT-263 by spectrophotometric methods after the end of treatment. Data are presented as mean±SD (n=5 per group). Animal experiments were performed in accordance with French law and approved by a local institutional ethical committee. The animals were maintained in a temperature-controlled facility (22° C.) on a 12-h light/dark cycle and provided free access to food (standard laboratory chow diet from UAR, Epinay-S/Orge, France). Human Mel270 uvealmelanoma cells were subcutaneously inoculated into 8-week-old female, immune-deficient, athymic, nude FOXN1nu mice (Harlan Laboratory). When the tumors became palpable (0.1-0.2 cm3), the mice received an intraperitoneal injection of ABT-263 (50 mg/kg), dissolved in 10% DMSO 6 times per week. Control mice were injected with DMSO alone. The growth tumor curves were determined after measuring the tumor volume using the equation V=(L×W2)/2. At the end of the experiment, the mice were euthanized by cervical dislocation.
# [4] = test system: short-term cultures of primary uveal melanoma tumour; experiment: Cell death in short-term cultures; assay type: cell-based, human; conditions: data not shown
# Procedure: Human uveal melanoma cell lines and short-term cultures derived from different patients with metastatic malignant melanoma cells were grown in DMEM supplemented with 7% FBS at 37° C. in a humidified atmosphere containing 5% CO2. Lipofectamine™ RNAiMAX and opti-MEM medium were purchased from Invitrogen (San Diego, CA, USA). ABT-263 was obtained from Euromedex and qVD from Clinisciences. Cells were seeded at a density of 100 000 cells/well, in 6-well plate and treated with ABT-263 for indicated time. Cells were harvested using accutase enzyme, washed twice with ice-cold phosphate-buffered saline, resuspended in a buffer (Hepes 250 mM, NaCl 150 mM, KCl 5 mM, MgCl2 2 mM, CaCl2) 2 mM) with DAPI (1 μg/ml) and Annexin V-Alexa Fluor 647 conjugate (1/100) and incubated for 15 minutes at room temperature (25° C.) in the dark. Samples were immediately analyzed by a flow cytometer (MACS QUANT) using a laser at 405 nm excitation with a bandpass filter at 425 nm and 475 nm for DAPI detection and a laser at 635 nm excitation with a bandpass filter at 650 nm and 665 nm for Alexa Fluor 647 dye. Annexin and DAPI mono- or double positive cells were counted as dead cells.
# [5] = test system: CDK4, p27 and p21 in Mel270 cells; experiment: Western blot of cell cycle proteins; assay type: cell-based, human
# Procedure: as §1, with “(Amersham). The western blots shown are representative of at least 3 independent experiments.” for “(Amersham).”
# [6] = test system: ER stress molecules in metastatic human uveal melanoma cells; experiment: Western blot of ER stress molecules; assay type: cell-based
# Procedure: as §1, with “(Amersham). The western blots shown are representative of at least 3 independent experiments.” for “(Amersham).”
# [7] = test system: metastatic uveal melanoma cells; experiment: Cell death by Annexin V/DAPI staining (flow cytometry); assay type: cell-based, human
# Procedure: as §2
# [8] = test system: primary uveal melanoma cell lines; experiment: as above; assay type: cell-based, human
# Procedure: as §2
# [9] = test system: BCL-2 family members in metastatic OMM1 cells; experiment: Protein immunoblot of BCL-2 family members; assay type: cell-based, human
# Procedure: as §1
# NOXA in primary cells = experiment: Protein immunoblot of BCL-2 family members; assay type: cell-based, human; conditions: 24 h of treatment
# Procedure: as §1
# [10] = OMM1-xenografted mice, after end of treatment
smiles,measurement,setting,value
"CC1(C)CCC(c2ccc(Cl)cc2)=C(CN2CCN(c3ccc(C(=O)NS(=O)(=O)c4ccc(N[C@H](CCN5CCOCC5)CSc5ccccc5)c(S(=O)(=O)C(F)(F)F)c4)cc3)CC2)C1 [ABT-263, 4-[4-[[2-(4-chlorophenyl)-5,5-dimethyl-1-cyclohexen-1-yl]methyl]-1-piperazinyl]-N-[[4-[[(1R)-3-(4-morpholinyl)-1-[(phenylthio)methyl]propyl]amino]-3-[(trifluoromethyl)sulfonyl]phenyl]sulfonyl]-benzamide]",ATF4 and CHOP level,[1]; Mel270 cells,enhanced
same,"ER stress pathways (BIP, PERK, EIF2α, ATF4, IRE1α, XBP1, ATF6, CHOP)",[1]; kinetics analysis in Mel270,activates all branches of the ER stress pathways
same,ABT-263-induced apoptosis with PERK knockdown,92.1 cells,sensitized
same,"cleavage of PARP, caspase 9 and caspase 3",[2]; primary and metastatic cells,dose-dependent cleavage
same,full-length PARP protein and caspase 3 zymogen,"[2]; time course, data not shown",time-dependent disappearance
same,serum alanine transaminase (ALT) versus vehicle,[3]; [10],no significant differences
same,serum aspartate transaminase (AST) versus vehicle,[3]; [10],no significant differences
same,hepatotoxicity,[3]; in vivo conditions,no hepatotoxicity
same,body weight versus vehicle,"[3]; xenografted mice, data not shown",no significant differences
same,killing effect,[4],killing effect was also found
same,"cell cycle (reduced CDK4, increased p27 and p21)",[5],cell cycle arrest
same,PERK and IRE1α phosphorylation,[6]; metastatic cell lines,did not detect
same,induction of ATF4 and CHOP,[6]; metastatic cells,hardly detectable
same,cell death,[7],80%
same,cell death,[8],20-35%
same,BCL2 level,[9]; cell line not given,no change
same,"expression of BCL-xL, MCL1, PUMA, BAX",[9]; metastatic OMM1 cells only,reduced expression
same,change in BCL-2 family proteins,NOXA in primary cells,increase in pro-apoptotic NOXA level
